US20020098469A1, “EXTRACORPOREAL METHODS FOR ENHANCING ANTIGEN PRESENTATION AND IMMUNE RESPONSIVENESS” (morgan ,lewis, bockius llp, priority 1996, published 2002)

Tests used:
[1] = tested on: Class I protein on the cell surface; assay: Class I expression after 8-MOP/UVA, fluorescent antibody, mean fluorescence channel (FIG. 2); type: cell-based
Excerpt: Mean fluorescence channel measurements permit the quantification of the amount of Class I protein on the cell surface, as identified with a fluorescent antibody against the Class I protein.

[2] = tested on: C1R B lymphoblastoid line transduced with the Class I B27 allele; assay: Class I expression on B27-transduced C1R B lymphoblastoid line, labeled W6/32 monoclonal antibody (FIG. 3); type: cell-based, human; details: for impact on Class I expression: other pharmacologic agents compared with 8-MOP
Protocol: In order to evaluate the enhanced immunogenicity of 8-MOP treated CTCL cells, a series of human lymphoblast lines was derived. The C1R B lymphoblastoid line, which in its native state expresses no HLA-A or HLA-B surface Class I and only a minute amount of HLA-C molecules was transduced with the Class I B27 allele. This modified cell population, with nearly all of its surface Class I molecules being B27, was exposed to 8MOP and incubated overnight.

[3] = tested on: Class I molecules on transduced C1R B cells; assay: Binding of iodinated B27 allele-specific peptide, immunoprecipitation with antibody 4E; type: cell-based, human; details: transduced C1R B cells exposed to 8-MOP
Protocol: To determine if the Class I MHC molecules induced in Example 5 remained functional, i.e., could be loaded with a known B27 allele-specific peptide, iodinated peptide was added under varied conditions.

[4] = tested on: human B lymphoblasts lacking the TAP genes or with TAP blocked by transduced ICP47; assay: TAP dependence of the 8-MOP-induced Class I increase (FIG. 4); type: cell-based; details: B lymphoblasts that lacked the TAP genes or had them blocked by transduced ICP47 (both conditions)
Protocol: Next, it was determined that the 8-MOP-induced increase in surface Class I molecules is dependent on peptide transport across the endoplasmic reticulum through the transporter associated with […] (TAP) pores. […] The increased immunogenicity of 8MOP treated disease-effector cells was thus shown to involve the augmented catabolism of proteins, leading to the generation of small peptides that are then transported to Class I molecules in the endoplasmic reticulum and then on to the cell surface where they associate with the Class I molecules.

[5] = tested on: C1R human B lymphoblasts displaying B27 Class I complex; assay: Class I MHC level of C1R cells incubated in various containers, cytofluorimeter (FIG. 5); type: cell-based; details: photoactivated 8-MOP in the 2410 bag (no leachable plasticizers), about 24 hours at 37° C.
Protocol: In the foregoing experiment, C1R human B lymphoblasts, cells molecularly engineered so that they display a readily studied B27 Class I protein complex, were exposed to photoactivated 8-MOP in the presence of various plastic containers. The mean fluorescence intensity was measured in a cytofluorimeter, using monoclonal antibodies specific for the B27 Class I complex.

Which results are given for `COc1c2occc2cc2ccc(=O)oc12` [8-MOP, 8-methoxypsoralen]?
Class I molecule expression ([1]; 1 joule per cm^2 of UVA and 200 ng/ml of 8-MOP, incubation about 18 hours, versus control cells): about doubles; Class I expression ([2]; UVA administered before the addition of 8-MOP, drug not photoactivated): only a minor increase; time to peak levels of Class I expression after exposure ([2]; optimal levels of 8-MOP): 20 h; increase of Class I expression over background ([2]; photoactivated 8-MOP, optimal levels, overnight incubation): approximately 3 fold; allele-specific peptide bound versus untreated cell line control [3]: approximately 3 fold; increase in functional Class I molecules per cell [3]: > 10,000 functional Class I molecules per cell; 8-MOP induced increase in Class I molecules [4]: prevented; Class I MHC level versus untreated controls [5]: more than doubled

Which “effect on the 8-MOP/UVA-induced increase in Class I expression” value ([1]; emetine added to 8-MOP/UVA treated cells) does the source give for `CC[C@H]1CN2CCc3cc(OC)c(OC)cc3[C@@H]2C[C@@H]1C[C@H]1NCCc2cc(OC)c(OC)cc21` [emetine] here?
The value was “prevented”.

Which “impact on Class I expression” value [2] does the source give for `CO[C@@]12[C@H](COC(N)=O)C3=C(C(=O)C(C)=C(N)C3=O)N1C[C@@H]1N[C@@H]12` [mytomycin C] here?
Its value is “either no or a more limited impact”.

TNF-α was tested. Which “impact on Class I expression” value [2] did it give?
The value was “either no or a more limited impact”.

For “γ-interferon: other pharmacologic agent compared with 8-MOP”, which “impact on Class I expression” value [2] is on record?
The value was “either no or a more limited impact”.
